pKi: −log10 of the molar value.

The target in this experiment is human M4 receptor (Homo sapiens (Human), UniProt P08173). The experiment in a line: Radioligand (tritiated N-methylscopolamine) binding assay, M4. The settings on record: Ki against the M4 receptor; membranes from CHO cells expressing human M4; tritiated N-methylscopolamine 1.5 nM; read-out: Ki. The method, boiled down: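 Inhibition of radioligand binding gave Ki. The assay used recombinant CHO membranes, 1.5 nM tracer, a 90 min/37 °C incubation and pH 7.4 buffer.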
human M4 receptor, sequence (P08173 whole entry): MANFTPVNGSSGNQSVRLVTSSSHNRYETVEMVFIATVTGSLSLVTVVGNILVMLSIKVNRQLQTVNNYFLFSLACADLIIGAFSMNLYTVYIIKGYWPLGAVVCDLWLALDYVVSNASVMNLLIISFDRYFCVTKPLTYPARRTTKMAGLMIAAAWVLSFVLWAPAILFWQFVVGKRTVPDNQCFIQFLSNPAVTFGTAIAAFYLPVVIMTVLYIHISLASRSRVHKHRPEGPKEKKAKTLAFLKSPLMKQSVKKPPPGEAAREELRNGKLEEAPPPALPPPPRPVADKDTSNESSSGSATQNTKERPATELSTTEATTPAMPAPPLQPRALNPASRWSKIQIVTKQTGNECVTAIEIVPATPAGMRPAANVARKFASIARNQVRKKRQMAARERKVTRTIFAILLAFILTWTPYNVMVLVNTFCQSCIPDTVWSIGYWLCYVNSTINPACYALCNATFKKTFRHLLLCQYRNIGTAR

Regarding `C[C@@H]1CN(c2cnc(C#N)nc2)C[C@H](C)N1C(=O)NCCC1CCN(Cc2ccccc2)CC1` [23-1, (2S,6R)-N-[2-(1-benzylpiperidin-4-yl)ethyl]-4-(2-cyanopyrimidin-5-yl)-2,6-dimethylpiperazine-1-carboxamide], the pKi is 6.00 to 7.00.
As for `N#Cc1cc(N2CCN(C(=O)OCCC3CCN(Cc4ccccc4)CC3)CC2)ccc1F` [12-10, 2-(1-benzylpiperidin-4-yl)ethyl 4-(3-cyano-4-fluorophenyl)piperazine-1-carboxylate], the pKi is 6.00 to 7.00.
For `CC(C)CCN1CCC(CCNC(=O)N2[C@H](C)CN(c3ncc(C#N)cn3)C[C@@H]2C)CC1` [21-8] the value was 6.00 to 7.00; for `CC1CN(c2ccccc2OC(F)(F)F)CCC1C(=O)NCCC1CCN(Cc2ccccc2)CC1` (stereo not shown) [10-16, N-[2-(1-benzylpiperidin-4-yl)ethyl]-3-methyl-1-[2-(trifluoromethoxy)phenyl]piperidine-4-carboxamide], 6.00 to 7.00; for `C[C@@H]1CN(c2cc(F)c(F)cc2F)C[C@H](C)N1C(=O)NCCC1CCN(Cc2ccccc2)CC1` [22-6], 7.00 to 8.00.
`C[C@@H]1CN(c2ncc(C(=O)NC3CC3)cn2)C[C@H](C)N1C(=O)NCCC1CCN(Cc2ccccc2)CC1` [27-1, 2-[(3R,5S)-4-{[2-(1-benzylpiperidin-4-yl)ethyl]carbamoyl}-3,5-dimethylpiperazin-1-yl]-N-cyclopropylpyrimidine-5-carboxamide]: the pKi is 7.00 to 8.00.
`O=C(NCCC1CCN(Cc2ccccc2)CC1)C1CCN(c2ccccc2OC(F)(F)F)CC1` [10-70, N-[2-(1-benzylpiperidin-4-yl)ethyl]-1-[2-(trifluoromethoxy)phenyl]piperidine-4-carboxamide]: the pKi was 6.00 to 7.00.
Consider `C[C@@H]1CN(c2cnc(C#N)cn2)C[C@H](C)N1C(=O)NCCC1CCN(Cc2ccccc2)CC1` [23-2, (2R,6S)-N-[2-(1-benzylpiperidin-4-yl)ethyl]-4-(5-cyanopyrazin-2-yl)-2,6-dimethylpiperazine-1-carboxamide], for which the pKi is 7.00 to 8.00.
The figure for `Nc1nc(N2CCN(C(=O)NCCC3CCN(Cc4ccccc4)CC3)CC2)ncc1F` [5-34, 4-(4-amino-5-fluoropyrimidin-2-yl)-N-[2-(1-benzylpiperidin-4-yl)ethyl]piperazine-1-carboxamide] is 6.00 to 7.00.
The figure for `COc1ccccc1CN1CCC(CCNC(=O)N2[C@H](C)CN(c3ncc(C#N)cn3)C[C@@H]2C)CC1` [6-67, (2R,6S)-4-(5-cyanopyrimidin-2-yl)-N-(2-{1-[(2-methoxyphenyl)-methyl]piperidin-4-yl}ethyl)-2,6-dimethylpiperazine-1-carboxamide] is 7.00 to 8.00; for `C[C@@H]1CN(c2cc(F)c(F)c(F)c2)CCN1C(=O)NCCC1CCN(Cc2cccc(C#N)c2)CC1` [6-18, (2R)-N-(2-{1-[(3-cyanophenyl)methyl]piperidin-4-yl}ethyl)-2-methyl-4-(3,4,5-trifluorophenyl)piperazine-1-carboxamide] it is 7.00 to 8.00.
`N#Cc1cccc(N2CCC(NC(=O)OCCC3CCN(Cc4ccccc4)CC3)CC2)c1` [12-5, 2-(1-benzylpiperidin-4-yl)ethyl N-[1-(3-cyanophenyl)piperidin-4-yl]carbamate]: the pKi was 6.00 to 7.00.
With `C[C@@H]1CN(c2cc(F)c(F)c(F)c2)CCN1C(=O)NCCC1CCN(Cc2ccccc2C#N)CC1` [6-29, (2R)-N-(2-{1-[(2-cyanophenyl)methyl]piperidin-4-yl}ethyl)-2-methyl-4-(3,4,5-trifluorophenyl)piperazine-1-carboxamide], the pKi was 6.00 to 7.00.
With `CN(C(=O)NCCC1CCN(Cc2ccccc2)CC1)C1CCN(c2ccc(Br)cn2)C1` (stereo not shown) [8-9, 1-[2-(1-benzylpiperidin-4-yl)ethyl]-3-[1-(5-bromopyridin-2-yl)pyrrolidin-3-yl]-3-methylurea], the pKi was 7.00 to 8.00.
For `O=C(CCC1CCN(Cc2ccccc2)CC1)NC1CCN(c2ccc(OC(F)(F)F)cc2)CC1` [9-36, 3-(1-benzylpiperidin-4-yl)-N-{1-[4-(trifluoromethoxy)phenyl]piperidin-4-yl}propanamide] the value was 6.00 to 7.00.
Regarding `O=C(NCCC1CCN(Cc2ccccc2)CC1)C1(O)CCN(c2cccc(OC(F)(F)F)c2)CC1` [10-62, N-[2-(1-benzylpiperidin-4-yl)ethyl]-4-hydroxy-1-[3-(trifluoromethoxy)phenyl]piperidine-4-carboxamide], the pKi is 6.00 to 7.00.
Regarding `O=C(NCCN[C@@H]1CCN(Cc2ccccc2)C1)C1CCN(c2ccc(OC(F)(F)F)c(F)c2)CC1` [9-28, N-(2-{[(3R)-1-benzylpyrrolidin-3-yl]amino}ethyl)-1-[3-fluoro-4-(trifluoromethoxy)phenyl]piperidine-4-carboxamide], the pKi was 7.00 to 8.00.
On to `N#Cc1cc(N2CCN(C(=O)NCCC3CCN(Cc4ccccc4)CC3)CC2)ccc1F` [8-22, N-[2-(1-benzylpiperidin-4-yl)ethyl]-4-(3-cyano-4-fluorophenyl)piperazine-1-carboxamide], for which the pKi was 6.00 to 7.00.
`C[C@@H]1CN(c2ncc(Cl)c(Cl)n2)CCN1C(=O)NCCC1CCN(Cc2ccccc2)CC1` [5-3, (2R)-N-[2-(1-benzylpiperidin-4-yl)ethyl]-4-(4,5-dichloropyrimidin-2-yl)-2-methylpiperazine-1-carboxamide]: the pKi was 6.00 to 7.00.
Take `O=C(NCC[C@@H]1CCN(Cc2ccccc2)C1)C1CCN(c2ccc(OC(F)(F)F)cc2)CC1` [9-66, N-{2-[(3R)-1-benzylpyrrolidin-3-yl]ethyl}-1-[4-(trifluoromethoxy)phenyl]piperidine-4-carboxamide]: the pKi was 6.00 to 7.00.
For the molecule `CC(=O)O[C@H](CNC(=O)N1CCN(c2ccc(F)c(C#N)c2)C[C@H]1C)C1CCN(Cc2ccccc2)CC1` [3-2, (1S)-1-(1-benzylpiperidin-4-yl)-2-{[(2R)-4-(3-cyano-4-fluorophenyl)-2-methylpiperazine-1-carbonyl]amino}ethyl acetate], the pKi was 7.00 to 8.00.
Take `O=C(NCCC1CCN(Cc2ccccc2)CC1)N1CCC(N2Cc3ccccc3NC2=O)CC1` [8-44, N-[2-(1-benzylpiperidin-4-yl)ethyl]-4-(2-oxo-1,2,3,4-tetrahydroquinazolin-3-yl)piperidine-1-carboxamide]: the negative-log Ki (pKi) is 6.00 to 7.00.
Consider `O=C(C1CCN(c2ncc(C(F)(F)F)cc2Cl)CC1)N1CCN(C2CCN(Cc3ccccc3)CC2)CC1` [9-21, 1-(1-benzylpiperidin-4-yl)-4-{1-[3-chloro-5-(trifluoromethyl)pyridin-2-yl]piperidine-4-carbonyl}piperazine], for which the pKi was 7.00 to 8.00.
For `O=C(NCCC1CCN(Cc2ccccc2)CC1)C1CCN(c2ccc(F)cn2)CC1` [10-73, N-[2-(1-benzylpiperidin-4-yl)ethyl]-1-(5-fluoropyridin-2-yl)piperidine-4-carboxamide] the value was 6.00 to 7.00.
Take `O=C(NCCC1CCN(Cc2ccccc2)CC1)N1CCC(n2nnc3ccccc32)CC1` [8-46, 4-(1H-1,2,3-benzotriazol-1-yl)-N-[2-(1-benzylpiperidin-4-yl)ethyl]piperidine-1-carboxamide]: the pKi was 6.00 to 7.00.
In the case of `N#Cc1cc(N2CCC(O)(C(=O)NCCC3CCN(Cc4ccccc4)CC3)CC2)ccc1F` [10-51, N-[2-(1-benzylpiperidin-4-yl)ethyl]-1-(3-cyano-4-fluorophenyl)-4-hydroxypiperidine-4-carboxamide], the pKi was 6.00 to 7.00.
With `O=C(NCC(O)C1CCN(CC2CCCCC2)CC1)C1CCN(c2ccc(OC(F)(F)F)cc2)CC1` (stereo not shown) [11-23, N-{2-[1-(cyclohexylmethyl)piperidin-4-yl]-2-hydroxyethyl}-1-[4-(trifluoromethoxy)phenyl]piperidine-4-carboxamide], the pKi is 6.00 to 7.00.
On to `O=C(NCCC1CCN(Cc2ccccc2)CC1)N1CCC(c2ccc(Cl)cc2)CC1` [8-4, N-[2-(1-benzylpiperidin-4-yl)ethyl]-4-(4-chlorophenyl)piperidine-1-carboxamide], for which the negative logarithm of the Ki (pKi) was 7.00 to 8.00.
`COc1cc(C)c(-c2cc3ncc(C(=O)NCCC4CCN(Cc5ccccc5)CC4)c(C)n3n2)cn1` [18-19]: the pKi is 6.00 to 7.00.
For `O=C(CC1CCN(Cc2ccccc2)CC1)NCC1CCN(c2cccc(OC(F)(F)F)c2)CC1` [10-26, 2-(1-benzylpiperidin-4-yl)-N-({1-[3-(trifluoromethoxy)phenyl]piperidin-4-yl}methyl)acetamide] the value was 6.00 to 7.00; for `COC(=O)c1cc(Cl)nc(N2CCN(C(=O)NCCC3CCN(Cc4ccccc4)CC3)[C@H](C)C2)n1` [5-11, methyl 2-[(3R)-4-{[2-(1-benzylpiperidin-4-yl)ethyl]carbamoyl}-3-methylpiperazin-1-yl]-6-chloropyrimidine-4-carboxylate], 6.00 to 7.00.
As to `COC1(C(=O)NCCC2CCN(Cc3ccccc3)CC2)CCN(c2ccc(OC(F)(F)F)cn2)CC1` [10-63, N-[2-(1-benzylpiperidin-4-yl)ethyl]-4-methoxy-1-[5-(trifluoromethoxy)pyridin-2-yl]piperidine-4-carboxamide], the pKi was 6.00 to 7.00.
Take `O=C(NCCC1CCN(Cc2ccccc2)CC1)c1ccc(-c2ccc(O)cc2)cc1` [9-69, N-[2-(1-benzylpiperidin-4-yl)ethyl]-4-(4-hydroxyphenyl)benzamide]: the pKi is 6.00 to 7.00.
For the molecule `C[C@@H]1CN(c2ncc(C#N)cn2)C[C@H](C)N1C(=O)NCCC1CCN(CC23C4C5C6C4C2C6C53)CC1` (stereo partly shown) [21-13], the pKi was 7.00 to 8.00.
In the case of `C[C@@H]1CN(c2ncc(F)cn2)CCN1C(=O)NCCC1CCN(Cc2ccccc2)CC1` [4-41, (2R)-N-[2-(1-benzylpiperidin-4-yl)ethyl]-4-(5-fluoropyrimidin-2-yl)-2-methylpiperazine-1-carboxamide], the pKi is 7.00 to 8.00.
Turning to `C[C@@H]1CN(c2cc(F)c(F)c(F)c2)CCN1C(=O)NCCC1CCN(Cc2ccc(C#N)cc2F)CC1` [6-30, (2R)-N-(2-{1-[(4-cyano-2-fluorophenyl)methyl]piperidin-4-yl}ethyl)-2-methyl-4-(3,4,5-trifluorophenyl)piperazine-1-carboxamide], the pKi is 6.00 to 7.00.
In the case of `Cc1c(C(=O)NCCC2CCN(Cc3ccccc3)CC2)cnc2cc(-c3cc(F)ccc3F)nn12` [18-10], the pKi was 7.00 to 8.00.

One may read the pKi as −log10 of the Ki, conventionally taken in molar units.

The record behind these values is US11033539B2, “Compounds of formulas (VII), (VIII), (IX), (XI), (XII), (XIII), and (XIV) as muscarinic receptor 4(M4) antagonists for treating neurological diseases” (Neurocrine Biosciences, Inc., priority 2015, dated 2021).
